Assay results: US20160122386A1, “V1A RECEPTOR AGONISTS” (FERRING B.V., priority 2014, published 2016)
Like-named read-outs stand apart in the source and are kept apart here. Starred links: 1 amine or outer side, 2 acyl side, 3 side chain; linkers in the order of their positions; H or OH if unused. Positions of bridges follow the written chain, without caps; N, C: chain ends. Non-standard residues stand in square brackets, D forms with d. Residues, ends and D or L forms follow the SMILES beside them. Chains are numbered I, II in the order given. *: point of attachment. Orn((CH2)6NH2) = O=C([C@H](CCCNCCCCCCN[*:3])N[*:1])[*:2]; d(isoGln) = NC(=O)[C@@H](CCC(=O)[*:2])N[*:1]; isoGln = NC(=O)[C@H](CCC(=O)[*:2])N[*:1]; d(εLys) = N[C@H](CCCCN[*:1])C(=O)[*:2]; X1 = N[C@@H](CCC(=O)[*:2])C(=O)[*:1]; εLys = N[C@@H](CCCCN[*:1])C(=O)[*:2]; 3Pal = N[C@@H](Cc1cccnc1)C(=O)O; Aad = N[C@@H](CCCC(=O)O)C(=O)O; Suc = O=C(CCC(=O)[*:2])[*:1]; Orn = NCCC[C@H](N)C(=O)O; Dab = NCC[C@H](N)C(=O)O; PhAc = O=C(Cc1ccccc1)*; Ava = NCCCCC(=O)O

Biological target: T1, human V1aR (Homo sapiens, UniProt P37288)
T1 construct: expressed in transfected cells
Experiment: Agonist activity at vasopressin V1a receptors, cell-based FLIPR calcium assay
Settings: for Emax: read-out: Efficacy Avg. (%)
Description: Efficacy (% MPE) is also determined as the percentage of maximal possible effect. This agonist assay utilizes cells from a stable cell line (HEK-flpin) expressing the vasopressin V1a receptor. Intracellular calcium increase in response to agonist is measured through real-time fluorescence of an intracellular calcium-sensitive dye. Cells are exposed to varying concentrations of test agonist compounds whereupon release of intracellular calcium is measured to determine the agonist potency and efficacy.
The cell line stably expresses the lacZ-Zeocin™ fusion gene and is designed for use with the Flp-In™ expression vector containing the gene of interest and the Flp recombinase expression plasmid, pOG44. The cell line contains a single integrated Flp Recombination Target (FRT) site from pFRT/lacZeo or pFRT/lacZeo2. To generate the HEK-flpin cell line stably expressing the human V1aR, the cells were co-transfected with the Flp-In™ expression vector containing the gene of interest (pcDNA5/FRT-hV1aR) and the Flp recombinase expression plasmid pOG44. Flp recombinase mediates insertion of the Flp-In™ expression vector into the genome at the integrated FRT site through site-specific DNA recombination. Stable cell lines expressing the hV1aR from the Flp-In™ expression vector can be generated by selection using hygromycin B. See Life Technologies/Invitrogen manual, Growth and Maintenance of Flp-In™ Cell Lines, Version E, published Feb.
Efficacy of this compound was set to be 100%. A stock solution of 5 mM was made up in DMSO and stored at −20° C.
HEK-flpin-hV1aR, cmcqV1aR, dV1aR and pV1aR cells were maintained in DMEM containing 10% (v/v) FBS-HI, 4 mM GlutaMAX™-I, 25 μg/mL Hygromycin B at 37° C. under 5% CO2 in a humidified atmosphere. Subculture was achieved by splitting semi-confluent cultures 1:3 to 1:6.
All compounds were made up in 100% DMSO at 10 mM stock concentrations and stored at −20° C. The compounds were allowed to thaw just before the assay. […] Typical dilution procedure of 10× final assay concentration involved a 1:100 top dilution (e.g., 2 μl Stock into 198 μl dilution medium) followed by half-log serial dilutions (e.g., 25.3 μl into 54.7 μl dilution medium supplemented with 1% DMSO (v/v)). (Dilution media consisted of phenol-red free DMEM containing 10% FBS-HI, 4 mM GlutaMAX™-I). […] The final DMSO concentration in the assay was 0.1%.
Loading Buffer was prepared by dissolving 1 vial of Calcium 4 Assay reagent in 100 mL of 1× HBSS-20 mM Hepes buffer.
The cells were loaded with Loading Buffer as follows. Cell plates were removed from the incubator and 20 μl of Loading Buffer containing probenecid (2.5 mM) was added to each well. The cells were incubated for 1 hr at 37° C. under 5% CO2 in a humidified atmosphere. The calcium image was obtained as follows.
The cell plates were transferred to FLIPR Tetra, along with a 384 well V-bottom plate pre-loaded with half-log concentrations of test compounds at 10× final test concentrations. The remaining steps of the assay were carried forward by FLIPR Tetra. A baseline reading was taken at 1-second (s) intervals for 5s followed by the addition of 5 μl of 10× compounds (test, reference, or Blank). The agonist-induced fluorescence signal was then measured for 180 s with initial 120 readings at 1-second intervals followed by 20 readings at 3-second intervals. Overall, each well in the FLIPR assay was composed of the following components in a total volume of 50 μl: 20 μl cells; 20 μl Calcium 4 Loading Buffer; […] 10× test or reference compound.

T1 sequence (P37288 whole entry): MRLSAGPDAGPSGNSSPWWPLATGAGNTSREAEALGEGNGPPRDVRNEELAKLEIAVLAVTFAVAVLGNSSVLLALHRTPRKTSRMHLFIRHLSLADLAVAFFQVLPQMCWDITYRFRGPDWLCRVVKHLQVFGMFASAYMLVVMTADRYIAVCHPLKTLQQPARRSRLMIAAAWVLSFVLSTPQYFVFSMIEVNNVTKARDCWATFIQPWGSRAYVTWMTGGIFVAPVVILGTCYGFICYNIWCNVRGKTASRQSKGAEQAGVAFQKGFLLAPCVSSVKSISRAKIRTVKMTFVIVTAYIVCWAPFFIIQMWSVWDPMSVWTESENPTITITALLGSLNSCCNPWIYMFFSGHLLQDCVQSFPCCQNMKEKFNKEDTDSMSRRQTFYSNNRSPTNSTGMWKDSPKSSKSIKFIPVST

## CC[C@H](C)[C@@H]1NC(=O)[C@H](Cc2ccccc2)NC(=O)[C@@H](N)CSSC[C@@H](C(=O)N2CCC[C@H]2C(=O)N[C@@H](CCNC(=O)[C@@H](N)CCC(=O)NCCCC[C@H](NC(=O)[C@H](CCCNC(=N)N)NC(=O)[C@@H]2CCCN2C(=O)[C@H](C)NC(=O)[C@H](CC(N)=O)NC(=O)[C@H](CCC(N)=O)NC(=O)[C@H](Cc2ccccc2)NC(=O)[C@@H](Cc2ccc(OC)cc2)NC(=O)Cc2ccccc2)C(N)=O)C(=O)NCC(N)=O)NC(=O)[C@H](CC(N)=O)NC(=O)[C@H](CC(N)=O)NC1=O [Compound 63] (I: H-CFINNCP[Dab]G-NH2 / II: PhAc-[dY](Me)FQNAPRK-NH2; disulfide I:1-I:6; linker I:8-II:8 via X1)
  EC50: 1.1 nM
  Emax: 36%

## CC[C@H](C)[C@@H]1NC(=O)[C@H](Cc2ccccc2)NC(=O)[C@@H](N)CSSC[C@@H](C(=O)N2CCC[C@H]2C(=O)N[C@@H](CCNC(=O)[C@H](N)CCCCNC(=O)CC[C@H](NC(=O)[C@H](CCCNC(=N)N)NC(=O)[C@@H]2CCCN2C(=O)[C@H](C)NC(=O)[C@H](CC(N)=O)NC(=O)[C@H](CCC(N)=O)NC(=O)[C@H](Cc2ccccc2)NC(=O)[C@@H](Cc2ccc(OC)cc2)NC(=O)Cc2ccccc2)C(N)=O)C(=O)NCC(N)=O)NC(=O)[C@H](CC(N)=O)NC(=O)[C@H](CC(N)=O)NC1=O [Compound 60] (I: H-CFINNCP[Dab]G-NH2 / II: PhAc-[dY](Me)FQNAPR[isoGln][d(εLys)]; disulfide I:1-I:6; amide I:8-II:C)
  EC50: 2.3 nM
  Emax: 42%

## CC[C@H](C)[C@@H]1NC(=O)[C@H](Cc2ccccc2)NC(=O)[C@@H](N)CSSC[C@@H](C(=O)N2CCC[C@H]2C(=O)N[C@@H](CCCNCCCCCCNC(=O)CCC(=O)NCCCC[C@H](NC(=O)[C@H](CCCNC(=N)N)NC(=O)[C@@H]2CCCN2C(=O)[C@H](CCCNC(=N)N)NC(=O)[C@H](CC(N)=O)NC(=O)[C@H](CCC(N)=O)NC(=O)[C@H](Cc2ccccc2)NC(=O)[C@@H](Cc2ccc(OC)cc2)NC(=O)Cc2ccccc2)C(N)=O)C(=O)NCC(N)=O)NC(=O)[C@H](CC(N)=O)NC(=O)[C@H](CCC(N)=O)NC1=O [Compound 1] (I: H-CFIQNCP[Orn((CH2)6NH2)]G-NH2 / II: PhAc-[dY](Me)FQNRPRK-NH2; disulfide I:1-I:6; linker I:8-II:8 via Suc)
  EC50: 1 nM
  Emax: 30%

## CC[C@H](C)[C@@H]1NC(=O)[C@H](Cc2ccccc2)NC(=O)[C@@H](N)CSSC[C@@H](C(=O)N2CCC[C@H]2C(=O)N[C@@H](CCCNCCCCCNC(=O)CC[C@H](NC(=O)[C@H](CCCNC(=N)N)NC(=O)[C@@H]2CCCN2C(=O)[C@H](CCCNC(N)=O)NC(=O)[C@H](CC(N)=O)NC(=O)[C@H](CCC(N)=O)NC(=O)[C@H](CC(C)(C)C)NC(=O)[C@@H](Cc2ccc(OC)cc2)NC(=O)Cc2ccccc2)C(N)=O)C(=O)NCC(N)=O)NC(=O)[C@H](CC(N)=O)NC(=O)[C@H](CCC(N)=O)NC1=O [Compound 46]
  EC50: 1.4 nM
  Emax: 62%

## CC[C@H](C)[C@@H]1NC(=O)[C@H](Cc2ccccc2)NC(=O)[C@@H](N)CSSC[C@@H](C(=O)N2CCC[C@H]2C(=O)N[C@@H](CCCNCCCCCCNC(=O)CC[C@H](NC(=O)[C@H](CCCNC(=N)N)NC(=O)[C@@H]2CCCN2C(=O)[C@H](C)NC(=O)[C@H](CC(N)=O)NC(=O)[C@H](CCC(N)=O)NC(=O)[C@H](Cc2ccccc2)NC(=O)[C@@H](Cc2ccc(OC)cc2)NC(=O)C2CCCCC2)C(N)=O)C(=O)NCC(N)=O)NC(=O)[C@H](CC(N)=O)NC(=O)[C@H](CCC(N)=O)NC1=O [Compound 19]
HEK-flpin cells stably expressing hV1aR, intracellular calcium fluorescence, averaged, read-out: EC50 (Avg)
  EC50: 2.5 nM
  Emax: 50%

## CC[C@H](C)[C@@H]1NC(=O)[C@H](Cc2ccccc2)NC(=O)[C@@H](N)CSSC[C@@H](C(=O)N2CCC[C@H]2C(=O)N[C@@H](CCNC(=O)[C@H](N)CCCCNC(=O)CC[C@H](NC(=O)[C@H](CCCNC(=N)N)NC(=O)[C@@H]2CCCN2C(=O)[C@H](C)NC(=O)[C@H](CC(N)=O)NC(=O)[C@H](CCC(N)=O)NC(=O)[C@H](Cc2ccccc2)NC(=O)[C@@H](Cc2ccc(OC)cc2)NC(=O)Cc2ccccc2)C(N)=O)C(=O)NCC(N)=O)NC(=O)[C@H](CC(N)=O)NC(=O)[C@H](CCCC(N)=O)NC1=O [Compound 51] (I: H-CFI[Aad](NH2)NCP[Dab]G-NH2 / II: PhAc-[dY](Me)FQNAPR[isoGln][d(εLys)]; disulfide I:1-I:6; amide I:8-II:C)
  EC50: 1.4 nM
  Emax: 43%

## CC[C@H](C)[C@@H]1NC(=O)[C@H](Cc2ccccc2)NC(=O)[C@@H](N)CSSC[C@@H](C(=O)N2CCC[C@H]2C(=O)N[C@@H](CCCNCCCCCC(=O)NCCCC[C@H](NC(=O)[C@H](CCCNC(=N)N)NC(=O)[C@@H]2CCCN2C(=O)[C@H](CCCNC(=N)N)NC(=O)[C@H](CC(N)=O)NC(=O)[C@H](CCC(N)=O)NC(=O)[C@H](Cc2ccccc2)NC(=O)[C@@H](Cc2ccc(OC)cc2)NC(=O)Cc2ccccc2)C(N)=O)C(=O)NCC(N)=O)NC(=O)[C@H](CC(N)=O)NC(=O)[C@H](CCC(N)=O)NC1=O [Compound 6]
  EC50: 2.5 nM
  Emax: 28%

## CC[C@H](C)[C@@H]1NC(=O)[C@H](Cc2ccccc2)NC(=O)[C@@H](N)CSSC[C@@H](C(=O)N2CCC[C@H]2C(=O)N[C@@H](CCCNC(=O)[C@@H](N)CCCCNC(=O)CC[C@H](NC(=O)[C@H](CCCNC(=N)N)NC(=O)[C@@H]2CCCN2C(=O)[C@H](CCCNC(=N)N)NC(=O)[C@H](CC(N)=O)NC(=O)[C@H](Cc2cccnc2)NC(=O)[C@H](Cc2ccccc2)NC(=O)[C@@H](Cc2ccc(OC)cc2)NC(=O)Cc2ccccc2)C(N)=O)C(=O)NCC(N)=O)NC(=O)[C@H](CC(N)=O)NC(=O)[C@H](CCC(N)=O)NC1=O [Compound 24] (I: H-CFIQNCP[Orn]G-NH2 / II: PhAc-[dY](Me)F[3Pal]NRPR[isoGln][εLys]; disulfide I:1-I:6; amide I:8-II:C)
  EC50: 2.3 nM
  Emax: 33%

## CC[C@H](C)[C@@H]1NC(=O)[C@H](Cc2ccccc2)NC(=O)[C@@H](N)CSSC[C@@H](C(=O)N2CCC[C@H]2C(=O)N[C@@H](CCNC(=O)[C@@H](N)CCCCNC(=O)CCCCNC(=O)CC[C@H](NC(=O)[C@H](CCCNC(=N)N)NC(=O)[C@@H]2CCCN2C(=O)[C@H](C)NC(=O)[C@H](CC(N)=O)NC(=O)[C@H](CCC(N)=O)NC(=O)[C@H](Cc2ccccc2)NC(=O)[C@@H](Cc2ccc(OC)cc2)NC(=O)Cc2ccccc2)C(N)=O)C(=O)NCC(N)=O)NC(=O)[C@H](CC(N)=O)NC(=O)[C@H](CCC(N)=O)NC1=O [Compound 37] (I: H-CFIQNCP[Dab]G-NH2 / II: PhAc-[dY](Me)FQNAPR[isoGln][Ava][εLys]; disulfide I:1-I:6; amide I:8-II:C)
  EC50: 1.3 nM
  Emax: 44%

## CC[C@H](C)[C@@H]1NC(=O)[C@H](Cc2ccccc2)NC(=O)[C@@H](N)CSSC[C@@H](C(=O)N2CCC[C@H]2C(=O)N[C@@H](CCCNCCCCCCNC(=O)CCCCNC(=O)CC[C@H](NC(=O)[C@H](CCCNC(=N)N)NC(=O)[C@@H]2CCCN2C(=O)[C@H](C)NC(=O)[C@H](CC(N)=O)NC(=O)[C@H](CCC(N)=O)NC(=O)[C@H](Cc2ccccc2)NC(=O)[C@@H](Cc2ccc(OC)cc2)NC(=O)Cc2ccccc2)C(N)=O)C(=O)NCC(N)=O)NC(=O)[C@H](CC(N)=O)NC(=O)[C@H](CCC(N)=O)NC1=O [Compound 5]
  EC50: 1.3 nM
  Emax: 28%

## CC[C@H](C)[C@@H]1NC(=O)[C@H](Cc2ccccc2)NC(=O)[C@@H](N)CSSC[C@@H](C(=O)N2CCC[C@H]2C(=O)N[C@@H](CCNC(=O)[C@H](N)CCCCNC(=O)CC[C@@H](NC(=O)[C@H](CCCNC(=N)N)NC(=O)[C@@H]2CCCN2C(=O)[C@H](C)NC(=O)[C@H](CC(N)=O)NC(=O)[C@H](CCC(N)=O)NC(=O)[C@H](Cc2ccccc2)NC(=O)[C@@H](Cc2ccc(OC)cc2)NC(=O)Cc2ccccc2)C(N)=O)C(=O)NCC(N)=O)NC(=O)[C@H](CC(N)=O)NC(=O)[C@H](CCCC(N)=O)NC1=O [Compound 62] (I: H-CFI[Aad](NH2)NCP[Dab]G-NH2 / II: PhAc-[dY](Me)FQNAPR[d(isoGln)][d(εLys)]; disulfide I:1-I:6; amide I:8-II:C)
  EC50: 2.5 nM
  Emax: 31%
